The results in this text go back to article PMC8749431 (mBio, 2022).

The test system of assay [1] is pseudotyped VSVs harboring SARS-CoV-2 S (SARS2-Spp). In words: microbe, parasite or virus in culture. The assay is classed as cell-based.
The test system of assay [2] is rVSV-SARS-CoV-2-S-GFP. The format is cell-based.
Setting [3] is: Severe acute respiratory syndrome coronavirus 2, 24 h.
Where [4] appears, read: Severe acute respiratory syndrome coronavirus 2, Huh-7, 24 h.
Setting [5] is: Severe acute respiratory syndrome coronavirus 2, MA104.
The mark [6] stands for this setting: Severe acute respiratory syndrome coronavirus 2, MA104, 24 h.
[7] abbreviates: Severe acute respiratory syndrome coronavirus 2.

pEC50: −log10 of the molar value.

`CN1CCN([C@@H](c2ccccc2)c2ccc(Cl)cc2)CC1` [(S)-CCZ, (S)-chlorcyclizine]: the negative logarithm of the EC50 (pEC50) (usually the EC50 on a negative log10 scale, so that one unit is a factor of ten) in assay [1] (setting [3]) was 4.94; in assay [1] (setting [4]) it was 5.04; in assay [1] (setting [6]), 5.39. In addition, the 90% effect level in assay [1] (setting [5]) (EC90) was put at 11.1 µM.

As to `O=C(CCCCC1SCC2NC(=O)NC21)NCCOCCOCCN1CCN(C(c2ccc(Cl)cc2)c2ccc(C3(C(F)(F)F)N=N3)cc2)CC1` (stereo not drawn) [CCZ-DB], in assay [1] (setting [7]), the pEC50 was 4.89.

As for `CN(C)C(=O)COC(=O)Cc1ccc(OC(=O)c2ccc(NC(=N)N)cc2)cc1` [Camostat, camostat], the pEC50 in assay [1] (setting [3]), in assay [1] (setting [4]) and in assay [1] (setting [6]) was less than 4.00 in each case.

On to `CCN(CC)CCCC(C)Nc1ccnc2cc(Cl)ccc12` (stereo not drawn) [Chloroquine, chloroquine], for which, in assay [1], the “inhibition of SARS2-Spp entry” value was “inhibited”. For the same compound, the EC90 (in general, the concentration needed for an effect of 90%) in assay [1] (setting [7]) is 30.2 µM; in assay [1] (setting [5]), 32.3 µM. The results for the pEC50 in assay [1] (setting [3]), in assay [1] (setting [4]) and in assay [1] (setting [6]) were 5.68, 5.36 and 5.12, respectively. Moreover, the “EC50 (GFP signals)” value in assay [2] is listed as “single-digit micromolar range”. In addition, in assay [2], the “inhibition of rVSV-SARS-CoV-2-S-GFP infection” value is given as “inhibited”.

`O=C(CCCC[C@@H]1SC[C@@H]2NC(=O)N[C@@H]21)NCc1ccc(C2(C(F)(F)F)N=N2)cc1` [DB-Ctrl] gave a pEC50 in assay [1] (setting [7]) of less than 4.00.

Consider `CCN1CCN(C(c2ccc(Cl)cc2)c2ccc(Cl)cc2)CC1` [Dichlorcyclizine, dichlorcyclizine], for which the negative logarithm of the EC50 (pEC50) in assay [1] (setting [3]) is 5.63; in assay [1] (setting [4]), 5.52; in assay [1] (setting [6]) it was 5.34. Further, the “EC50 (GFP signals)” value in assay [2] is reported as “single-digit micromolar range”. For the same compound, in assay [2], the “inhibition of rVSV-SARS-CoV-2-S-GFP infection” value is listed as “inhibited”.

On to `CCOC(=O)[C@H]1O[C@@H]1C(=O)N[C@@H](CC(C)C)C(=O)NCCC(C)C` [E-64d], for which the “inhibition of SARS2-Spp entry” value in assay [1] is “inhibited”.

Regarding `Cc1cc(-c2nc(CN3CCC(C(=O)NCCCN4C[C@H](C)C[C@H](C)C4)CC3)co2)ccc1F` [Fluoxazolevir, fluoxazolevir], the EC90 in assay [1] (setting [7]) came out at 13.6 µM; in assay [1] (setting [5]) it was 18.5 µM. Also, the pEC50 is 5.17 in assay [1] (setting [3]), 5.58 in assay [1] (setting [4]) and 5.41 in assay [1] (setting [6]). Besides, in assay [2], the “EC50 (GFP signals)” value is reported as “single-digit micromolar range”. Moreover, the “inhibition of rVSV-SARS-CoV-2-S-GFP infection” value in assay [2] is on record as “inhibited”.
